{"source": "patent US20180327364A1", "about": "“MTOR INHIBITORS AND METHODS OF USE THEREOF” (Brandeis University, priority 2015, published 2018)", "assay_type_in_all_cases": "cell-based", "key": {"firefly luciferase [1]": {"system": "firefly luciferase", "experiment": "Luciferase assay in stably transduced luciferase HEK-293T cells", "settings": "for wild type luciferase signal: HEK-293T cells expressing HA-luciferase, 100 μM, 4 h; for luciferase levels / activity, inhibitor alone: 100 μg/mL cycloheximide or 6 μM bortezomib", "method": "Firefly luciferase and firefly luciferase-eDHFR were cloned into pBABE-puro vector which was a gift from Hartmut Land & Jay Morgenstern & Bob Weinberg (Addgene plasmid #1764). pBABE-puro-luciferase was co-transfected with VSV-G into GP2-293 cells (Retro-X Universal Packaging System, Clonetech, Mountain View, Calif.) with TransIT-2020 (MirusBio) according to TransIT-2020's manufacture's protocol. After 48 h, viral supernatant was harvested, spun down, filtered with a […] syringe filter, and added to HEK-293T supplemented with 8 μg/mL polybrene. After 4 h of infection, the media was replaced with fresh media. 48 h later, media was replaced with media containing 3 μg/mL puromycin. Media was replaced with fresh media containing puromycin every 3-4 days. After 2 weeks of puromycin selection, the cells were grown out from single cell colonies and screened for luciferase expression.\nStably transduced luciferase HEK-293T cells were plated in 96-well plates 24 h prior to treatment with 100 μM of Cbz-B3A, amine-B3A, acetyl-B3A, and Cbz-acetyl. After 4 h, cells were harvested and measured with Luciferase Assay System with Reporter Lysis Buffer from Promega according to the manufacturer's protocol. Before the addition of luciferin, protein concentration was measured by removing 2 μl of lysate from each well and adding it to diluted Bio-Rad Protein Assay Dye Reagent Concentrate, and the absorbance was measured at OD595. The protein concentration was used to normalize luciferase signal. For translation assays, cells were pretreated for 15 min with 100 μg/mL cycloheximide or 6 μM bortezomib. For the recombinant luciferase assay, Quantilum Recombinant Luciferase (Promega) was diluted 1:250,000 in reporter lysis buffer with 1 mg/mL BSA then mixed 1:1 with 200 μM compound in the same buffer for a final dilution of 1:500,000 and 100 μM compound in 20 μL. This was incubated for 10 min at room temperature then measured with Luciferase Assay System with Reporter Lysis Buffer from Promega according to the manufacturer's protocol."}, "[2]": {"system": "4EBP1 phosphorylation by mTORC1", "experiment": "4EBP1 phosphorylation immunoblot in HEK-293T cells", "method": "(§1) Quantification of western blots was performed with ImageJ. Cells were lysed in RIPA buffer (1% NP-40, 1% NaDeoxycholate, 0.1% SDS, 10 mM TrisCl, 10 mM β-glycerophosphate, 10 mM Na pyrophosphate, 50 mM NaF, 200 μM Na vanadate, 1 mM EDTA, 500 μM EGTA, 1% benzonase, and supplemented with complete (Roche Diagnostics) protease inhibitors)."}, "firefly luciferase [3]": {"system": "firefly luciferase", "experiment": "Luciferase assay in stably transduced luciferase HEK-293T cells", "settings": "HEK-293T luciferase-eDHFR and wild-type luciferase cells; 200 TMP-B3A (unit not given) vs DMSO"}, "[4]": {"system": "protein translation in HEK-293T cells", "experiment": "35S-methionine/cysteine incorporation translation assay", "settings": "saturating concentration (Cbz-B3A 10 μM); 4 h treatment then 1 h labeling", "method": "80,000 cells/well of HEK-293T cells were plated into 24 well plates 24 h before the assay. Cells were treated with indicated concentration of compound for 4 h. After 4 h, the media was removed and replaced with DMEM without methionine and cysteine (Lifetechnologies) supplemented with 0.2 mCi/mL EXPRESS [^35S] protein labeling mix (PerkinElmer), 10% dialyzed FBS (Pierce), 1× glutaMax (Gibco), 100 U/mL penicillin 100 μg/mL streptomycin (Gibco), 1 mM sodium pyruvate (Lifetechnologies), and the indicated concentration of compound. After 1 h, this media was removed, cells were washed with ice cold PBS, and lysed with low deoxycholate RIPA buffer (10 mM Tris-Cl, 1% NP-40, 0.5% Na Deoxycholate, 0.1% SDS, 140 mM NaCl, 1 mM EDTA, 500 μM EGTA, 1× Roche Complete protease inhibitors, 1:100 Benzonase, and at pH 8.0). Lysate was centrifuged at maximum speed for 20 m at 4° C. The concentration was measured by Bradford assay. 10 μg of lysate was added to […] ice cold 1 mg/mL BSA with 0.02% Na Azide. 1 mL of ice cold 10% TCA was added, the solutions were mixed and incubated on ice for 0.5 h. These mixtures were vacuum filtered onto GF/C Whatman glass microfiber filters. The filters were washed with 2×5 mL of 10% TCA, then 2×3 mL ethanol. The filters were then dried for a 0.5 h. The filters were placed into scintillation vials with 5 mL of scintillation fluid and read on a scintillation counter."}, "eIF2α": {"system": "eIF2α", "experiment": "eIF2α phosphorylation immunoblot in HEK-293T cells", "settings": "1 h; tunicamycin 5 μg/mL, thapsigargin 500 nM; compared with vehicle", "method": "as §1"}}}
{"molecule": "CC(C)(C)OC(=O)/N=C(\\NCCC[C@H](NC(=O)OC(C)(C)C)C(=O)NCCCCCCN)NC(=O)OC(C)(C)C", "note": "[Amine-B3A]", "values": [{"measurement": "wild type luciferase signal", "setting": "firefly luciferase [1]", "value": "decreased the wild type luciferase signal"}]}
{"molecule": "CC(C)C[C@H](NC(=O)[C@H](Cc1ccccc1)NC(=O)c1cnccn1)B(O)O", "note": "[Bortezomib, reference compound]", "values": [{"measurement": "luciferase levels / activity, inhibitor alone", "setting": "firefly luciferase [1]", "value": "decreased luciferase levels"}]}
{"molecule": "CC(=O)NCCCCCCNC(=O)OCc1ccccc1", "note": "[Cbz-acetyl]", "values": [{"measurement": "4EBP1 phosphorylation (hyper- vs hypo-phosphorylated band)", "setting": "[2]; Cbz-B3A 10 μM, Cbz-acetyl 10 μM, rapamycin 20 nM, 4 h", "value": "No shift"}, {"measurement": "wild type luciferase signal", "setting": "firefly luciferase [1]", "value": "not reduced"}]}
{"molecule": "CC(C)(C)OC(=O)/N=C(/NCCCC(NC(=O)OC(C)(C)C)C(=O)NCCCCNC(=O)OCc1ccccc1)NC(=O)OC(C)(C)C", "note": "(centres unmarked) [JX-8]", "values": [{"measurement": "4EBP1 phosphorylation, comparison with Cbz-B3A", "setting": "[2]; 20 μM, 3 h, anti-4EBP1 western blot", "value": "more potent mTOR inhibitor than CB3A"}]}
{"molecule": "COc1cc(Cc2cnc(N)nc2N)cc(OC)c1OCC(=O)NCCCCCCNC(=O)[C@H](CCCN/C(=N\\C(=O)OC(C)(C)C)NC(=O)OC(C)(C)C)NC(=O)OC(C)(C)C", "note": "[TMP-B3A]", "values": [{"measurement": "luciferase signal", "setting": "firefly luciferase [3]", "value": "reduced luciferase signal to similar levels in both luciferase-eDHFR and wild-type luciferase cells"}]}
{"molecule": "CC(=O)NCCCCCCNC(=O)[C@H](CCCN/C(=N\\C(=O)OC(C)(C)C)NC(=O)OC(C)(C)C)NC(=O)OC(C)(C)C", "note": "[acetyl-B3A]", "values": [{"measurement": "wild type luciferase signal", "setting": "firefly luciferase [1]", "value": "decreased the wild type luciferase signal"}]}
{"molecule": "C[C@@H]1C[C@@H]([C@H](O)CC2CC(=O)NC(=O)C2)C(=O)[C@@H](C)C1", "note": "[cycloheximide, reference compound]", "values": [{"measurement": "luciferase levels / activity, inhibitor alone", "setting": "firefly luciferase [1]", "value": "luciferase activity decreased"}]}
{"molecule": "CO[C@H]1C[C@@H]2CC[C@@H](C)[C@@](O)(O2)C(=O)C(=O)N2CCCC[C@H]2C(=O)O[C@H]([C@H](C)C[C@@H]2CC[C@@H](O)[C@H](OC)C2)CC(=O)[C@H](C)/C=C(\\C)[C@@H](O)[C@@H](OC)C(=O)[C@H](C)C[C@H](C)/C=C/C=C/C=C/1C", "note": "[rapamycin, reference compound]", "values": [{"measurement": "maximal inhibition of translation (35S-methionine/cysteine incorporation)", "setting": "[4]", "value": 35, "unit": "%"}]}
{"molecule": "C/C=C(/C)C(=O)O[C@H]1C(C)=C2[C@H]([C@@H]1OC(=O)CCCCCCC)[C@@](C)(OC(C)=O)C[C@H](OC(=O)CCC)[C@@]1(O)[C@H]2OC(=O)[C@@]1(C)O", "note": "[thapsigargin]", "values": [{"measurement": "eIF2α phosphorylation", "setting": "eIF2α", "value": "increased phosphorylation of eIF2α"}]}
{"molecule": "tunicamycin", "values": [{"measurement": "eIF2α phosphorylation", "setting": "eIF2α", "value": "increased phosphorylation of eIF2α"}]}
